Reference: article PMC6416395, “B1.12: a novel peptide interacting with the extracellular loop of the EBV oncoprotein LMP1” (Scientific Reports, 2019)
“Also recorded” adds a separate entry of the source. Residues, ends and D or L forms follow the SMILES beside them.

Key:
[1] = system: B1 peptide (first extracellular loop of LMP1); experiment: NMR titration of B1/B1.12 interaction; assay type: binding, Epstein-Barr virus (EBV); conditions: H2O/D2O (90:10), 500 MHz
Experimental: The NMR experiments samples were prepared in 500 μL of H2O/D2O (90:10); using 1 mM of B1 peptide and 21 mM of B1.12 peptide. Titration experiment was also performed with varying the B1:B1.12 proportions (1:1; 3:1; 5:1; 7:1; 9:1). The NMR experiments were recorded on a Bruker spectrometer 500 MHz equipped with a TCI cryoprobe. Acquisition was performed with water suppression with excitation sculpting pulse sequence.

C666.1 cells = experiment: MTT cell viability, C666.1; assay type: cell-based; conditions: increasing concentration to 200 µM, 48 h
Experimental: (§1) Three cell lines were used: C666-1 which is a native EBV-infected NPC-derived cell line constitutively expressing LMP1, HeLa cells transfected with native vector (Gpt) or harboring the cDNA encoding LMP1, and HT-29 which is a human colon cancer cell line All cells were maintained in RPMI medium 1640 supplemented with 5% (V/V) FBS (Gibco), 4 µg/mL Gentamycine and 2 mM L-glutamine at 37 °C in a humidified atmosphere of 5% CO2. These cell lines were kindly provided by Pr P. Busson (IGR-France).
Cells were plated into 96-well plates until 80% confluent and then treated with different concentrations of B1.12 peptide (100, 200, 300 and 400 µM). After 48 hours of incubation, 20 μL MTT (5 mg/mL) were added to each well. After 4 hours, 100 μL dimethyl sulfoxide (DMSO) was added to each well, and absorbance was measured at […] using a Varioskan™ Flash Multimode Reader (Thermofisher Scientific). The percentage of cell viability was calculated using this formula:(OD590 nm of treated cells/OD590 nm of untreated cells) × 100.

HT29 cells = experiment: Cell cycle analysis, HT29; assay type: cell-based, human; conditions: HT29, 50 µM peptide
Experimental: as §1
Cell cycle analysis of C666.1 and HT29 cells was performed using the FXcycleTm PIi/RNnase staining solution (Invitrogen). Briefly, cells (4 × 10^5) were seeded and grown for 24 hours, and then incubated with serum-free RPMI for another 24 hours (starvation) to decrease cell constitutive signaling. After starvation, cells were incubated or not with 50 µM B1.12 peptide (C666.1 and HT29 cells) or control peptide (C666.1 cells) for 48 hours. Following incubation, cells were washed with PBS, trypsinized and centrifuged at 1200 rpm for 5 minutes. The cell pellet was then washed twice with PBS, and cells were fixed with 5 mL of ethanol 70% for 24 hours at 4 °C. […] The data were collected and analyzed by an Attune NxT Flow Cytometer (Thermofisher).

pAkt = experiment: Western blot pAkt in C666.1 cells; assay type: cell-based; conditions: 100 µM peptide, 24 hours, C666.1, Western blot, n = 4 biological replicates
Experimental: (§2) Cells were cultured at 80% confluency and then incubated with 100 µM B1.12 peptide for 24 hours. Subsequently, cells were washed twice with cold PBS and scrapped in ice-cold RIPA buffer (50 mM Tris pH 7.4, 5 mM EDTA pH 8.0, 150 mM NaCl, 0.1% SDS, 0.5% NaDOC, 0.5% NP 40) supplemented with 5 mM PMSF. After 30 minutes on ice, cells were sonicated, and cell debris were removed by centrifugation at 15,000 rpm at 4 °C for 15 minutes. Proteins were quantified using the Bradford Protein Assay (Bio-Rad) according to the manufacturer’s specifications. Thirty μg of total proteins were separated on 10% SDS–PAGE and transferred to PVDF membrane (Amersham Hybond-P). The membranes were blocked at 4 °C overnight with PBS 0.1% Tween 20 containing 5 mg/mL skimmed milk, prior to be incubated with pAkt (Biotechne, diluted 1/2500) pRelA536 (Biotechne, diluted 1/1000), and Tubulin (Thermofisher, diluted 1/1000) antibodies for 2 hours at room temperature, followed by incubation with anti-rabbit or anti-mouse conjugated to horseradish peroxidase at room temperature for 1 hour. The target protein band was visualized using the enhanced chemiluminescence detection system (Amersham ECL Prime Western Blotting Detection Reagent) and luminescent bands were visualized using the VERSADOC imaging system. Band densities were assessed by Image-J software.

pNFκb (pRelA536) = experiment: Western blot pNFκb (pRelA536) in C666.1 cells; assay type: cell-based; conditions: 100 µM peptide, 24 hours, C666.1, Western blot, n = 4 biological replicates
Experimental: as §2

CC(C)C[C@H](NC(=O)[C@H](CC(=O)O)NC(=O)[C@H](CC(C)C)NC(=O)[C@@H]1CCCN1C(=O)[C@H](CS)NC(=O)[C@H](C)N)C(=O)N[C@@H](CCCNC(=N)N)C(=O)N[C@@H](CO)C(=O)N1CCC[C@H]1C(=O)N[C@@H](CS)C(=O)NCC(N)=O [B1.12] (H-ACPLDLRSPCG-NH2; N-terminus and C-terminus assumed)
binding to target B1 (NMR) ([1]; 1 mM B1, 21 mM B1.12): bound specifically to its target B1
B1 residues showing chemical shift variation ([1]; B1:B1.12 titration 1:1 to 9:1): Met2, Trp5 and Thr6; also recorded: Met^2, Trp^5 and Thr^6
cell viability (in words) (C666.1 cells): gradually decreases with increasing peptide concentration
cell cycle phases versus untreated (in words) (HT29 cells): the cell cycle phases still unchanged
cells in G0/G1 phase (HT29 cells; propidium iodide FACS, 24 h (48 h elsewhere in the source)): 78.3%
pAkt expression (pAkt): low in B1.12-treated-C666.1 compared to those in the untreated or treated with control peptide; also recorded: decreased in B1.12-treated-C666.1 compared to those in the untreated or treated with control peptide more markedly for pAkt
pNFκb (pRelA536) expression (pNFκb (pRelA536)): a weak change; also recorded: decreased in B1.12-treated-C666.1 compared to those in the untreated or treated with control peptide
